According to US9415030B2 (priority 2008, dated 2016):
Like-named read-outs stand apart in the source and are kept apart here.

Tests used:
OCD = assay: Earlier treatments of Subject 1 (SSRIs, atypical neuroleptics, IVIG); type: in vivo, human; conditions: Subject 1, before glycine treatment
clinical = conditions: human, in vivo
Description: Hyperammonemia is seen in several abnormal conditions, e.g. inborn errors of metabolism that affect the urea cycle, small bowel syndrome, and others.

lupus mice = conditions: fed a lot of arginine in their diet; cited from earlier work
[1] = system: human cerebellar granule neurons; conditions: cultured cerebellar granule neurons; cited from earlier work
[2] = system: cerebellar granule neurons; conditions: cultured cerebellar granule neurons; cited from earlier work
[3] = system: OCD, BDD, and ADHD symptoms
Description: Although individual symptoms have varied in intensity over time, the basic spectrum of signs and symptoms appears to have been unchanged over 15 years.
Participation in family gatherings has increased.

NMDA co-agonist site = NMDA co-agonist site (Homo sapiens, UniProt Q05586); conditions: 0.8 g/kg body weight/day; cited from earlier work
cognition = system: cognition
Description: Available evidence consists of records for formal cognitive testing, school records from pre-kindergarten through college (in progress), SAT scores, including scores on practice tests in an SAT preparation course, and diary-recorded observations made in parental tutoring sessions occurring from first grade through college.
Preparation for the SAT test included a test preparation course that involved practice tests that simulated actual test conditions. […] It should be noted that both official and unofficial SAT tests were taken in the standard time intervals.
No parental tutoring was given and it should be noted that Subject 1 received no special accommodations in this course.
In the course of these explanations, the importance of these facts was strongly emphasized. One and a half months after the course was over, Subject 1 was again queried by their parent on this topic.

[4] = 1 year after initiation of glycine treatment

## Fc1ccc([C@@H]2CCNC[C@H]2COc2ccc3c(c2)OCO3)cc1 [Paxil]
OCD
  response of OCD to treatment: non-responder

## N=C(N)NCCC[C@H](N)C(=O)O [arginine, L-arginine]
clinical
  concentration at 3 h: 98 µM
  plasma ammonia concentration: ~94 µM
Lupus mice
  survival: die more quickly

## CC[C@H]1OC(=O)[C@H](C)[C@@H](O[C@H]2C[C@@](C)(OC)[C@@H](O)[C@H](C)O2)[C@H](C)[C@@H](O[C@@H]2O[C@H](C)C[C@H](N(C)C)[C@H]2O)[C@](C)(OC)C[C@@H](C)C(=O)[C@H](C)[C@@H](O)[C@]1(C)O [clarithromycin]
[1]
  kainate-mediated excitotoxicity: not kainate-mediated excitotoxicity
[2]
  NMDA receptor mediated excitotoxic cell death: inhibited NMDA receptor mediated excitotoxic cell death

## glycine
[3]; [4]
  intolerance of mirrors: reduced intolerance of mirrors
  perseverative behavior during taxi rides: much reduced
[3]; 6 week cessation with no infection
  decline on glycine cessation: little or no decline
[3]; 9 month cessation begun May 2006
  BDD signs and symptoms after glycine cessation: clear increase in BDD signs and symptoms
[3]; Subject 1, during glycine treatment
  line crossing obsession: no signs of the line crossing obsession
[3]; Subject 1, parent's report
  time to first behavioral improvement after initiation of glycine treatment: about three
[3]; over three months after resumption
  recovery of gains after glycine resumption: previous gains were largely recovered
[3]; periods of sustained glycine treatment
  BDD signs and symptoms: continued to improve
NMDA co-agonist site
  NMDA activity: moderately enhanced NMDA activity
cognition; 10 and 14 weeks after glycine cessation
  college algebra test scores: low 90% range
cognition; 21 and 26 weeks after glycine cessation
  college algebra test scores: low 80% range
cognition; course begun six months after starting glycine
  improvement of SAT scores during Kaplan preparation course: approximately 250 points
cognition; high-dose glycine treatment
  cognition: cognition improved
cognition; nine months after glycine cessation
  memory consolidation and/or retrieval: return of difficulties in memory consolidation and/or retrieval
cognition; sustained glycine treatment
  SAT math score, official test: 520
  SAT math score, practice test 1: 390
  SAT math score, practice test 2: 460
  SAT math score, practice test 3: 490
  SAT verbal score, official test: 660
  SAT verbal score, practice test 1: 540
  SAT verbal score, practice test 2: 540
  SAT verbal score, practice test 3: 600
  percentile of official SAT verbal score: 90 percentile
